Results reported in ChEMBL document CHEMBL5233262, “Anti-inflammatory activity of naturally occuring diarylheptanoids - A review” (Bioorg Med Chem, 2021).
In brackets after ≈: the same amount, converted by molar mass.

What was measured:
Rattus norvegicus [1] = assay: Antiinflammatory activity in rat model of ethyl phenylpropiolate-induced ear edema assessed as reduction in ear thickness administered topically and measured after 1 hr; assay type: functional
Rattus norvegicus [2] = assay: Antiinflammatory activity in rat model of carrageenan-induced hind paw edema assessed as reduction in paw thickness at 100 mg/kg,ip 30mins before carrageenin exposure and measured after 3 hrs; assay type: functional; parameters: scale not given: the % may be the effect or the level left
Rattus norvegicus [3] = assay: Antiinflammatory activity in rat model of ethyl phenylpropiolate-induced ear edema assessed as reduction in ear thickness administered topically and measured after 30 mins; assay type: functional; conditions: 0.5 h
Mus musculus [4] = assay: Antiinflammatory activity in ICR mouse model of thioacetamide-induced hepatotoxicity assessed as reduction in TNF-alpha expression at 1 mg/kg,ip pretreated with compound followed by TA induction and measured after 24 hrs by RT-PCR analysis; assay type: functional; parameters: scale not given: the % may be the effect or the level left
Hep 3B2 [5] = assay: Antiinflammatory activity in human Hep3B cells assessed as inhibition of IL-6 stimulated SOCS3 mRNA expression at 30 uM preincubated for 60 mins followed by IL-6 stimulation and measured after 20 mins by RT-PCR analysis; assay type: functional; conditions: 1.333 h, time 80 min
Hep 3B2 [6] = assay: Antiinflammatory activity in human Hep3B cells assessed as inhibition of IL-6 stimulated IL-1beta mRNA expression at 30 uM preincubated for 60 mins followed by IL-6 stimulation and measured after 20 mins by RT-PCR analysis; assay type: functional; conditions: 1.333 h, time 80 min
Hep 3B2 [7] = assay: Antiinflammatory activity in human Hep3B cells assessed as inhibition of IL-6 stimulated ICAM-1 mRNA expression at 30 uM preincubated for 60 mins followed by IL-6 stimulation and measured after 20 mins by RT-PCR analysis; assay type: functional; conditions: 1.333 h, time 80 min
Hep 3B2 [8] = assay: Antiinflammatory activity in human Hep3B cells assessed as inhibition of IL-6 stimulated CRP mRNA expression at 30 uM preincubated for 60 mins followed by IL-6 stimulation and measured after 20 mins by RT-PCR analysis; assay type: functional; conditions: 1.333 h, time 80 min
Mus musculus [9] = assay: Protective activity in Pde6brd10 mouse model of Retinitis pigmentosa assessed as decrease in IL-6 gene expression level in retina at 5 mg/kg,ip for 14 days by qRT-PCR analysis; assay type: functional; parameters: scale not given: the % may be the effect or the level left; conditions: time 14 day
Mus musculus [10] = assay: Protective activity in Pde6brd10 mouse model of Retinitis pigmentosa assessed as decrease in TNF-alpha gene expression level in retina at 5 mg/kg,ip for 14 days by qRT-PCR analysis; assay type: functional; parameters: scale not given: the % may be the effect or the level left; conditions: time 14 day
Mus musculus [11] = assay: Protective activity in Pde6brd10 mouse model of Retinitis pigmentosa assessed as decrease in NO production in retina at 5 mg/kg,ip for 14 days by Griess assay; assay type: functional; parameters: scale not given: the % may be the effect or the level left; conditions: time 14 day
Mus musculus [12] = assay: Protective activity in Pde6brd10 mouse model of Retinitis pigmentosa assessed as decrease in IL-6 production in retina at 5 mg/kg,ip for 14 days by ELISA; assay type: functional; parameters: scale not given: the % may be the effect or the level left; conditions: time 14 day
Mus musculus [13] = assay: Protective activity in Pde6brd10 mouse model of Retinitis pigmentosa assessed as decrease in IL-1beta production in retina at 5 mg/kg,ip for 14 days by ELISA; assay type: functional; parameters: scale not given: the % may be the effect or the level left; conditions: time 14 day
Mus musculus [14] = assay: Protective activity in Pde6brd10 mouse model of Retinitis pigmentosa assessed as decrease in IL-1beta gene expression level in retina at 5 mg/kg,ip for 14 days by qRT-PCR analysis; assay type: functional; parameters: scale not given: the % may be the effect or the level left; conditions: time 14 day
Mus musculus [15] = assay: Protective activity in Pde6brd10 mouse model of Retinitis pigmentosa assessed as decrease in IL-12 production in retina at 5 mg/kg,ip for 14 days by ELISA; assay type: functional; parameters: scale not given: the % may be the effect or the level left; conditions: time 14 day
Mus musculus [16] = assay: Protective activity in Pde6brd10 mouse model of Retinitis pigmentosa assessed as decrease in IL-12 gene expression level in retina at 5 mg/kg,ip for 14 days by qRT-PCR analysis; assay type: functional; parameters: scale not given: the % may be the effect or the level left; conditions: time 14 day
Mus musculus [17] = assay: Protective activity in Pde6brd10 mouse model of Retinitis pigmentosa assessed as decrease in NF-kappaB expression level in retina at 5 mg/kg,ip for 14 days by Western blot analysis; assay type: functional; parameters: scale not given: the % may be the effect or the level left; conditions: time 14 day
Mus musculus [18] = assay: Protective activity in Pde6brd10 mouse model of Retinitis pigmentosa assessed as decrease in TNFalpha production in retina at 5 mg/kg,ip for 14 days by ELISA; assay type: functional; parameters: scale not given: the % may be the effect or the level left; conditions: time 14 day
HepG2 [19] = assay: Antiinflammatory activity in human HepG2 cells assessed as inhibition of LPS-induced IL-1beta mRNA expression at 10 ug/ml preincubated for 1 hrs followed by LPS stimulation and measured after 24 hrs by qPCR analysis; assay type: functional; conditions: time 25 hrs
RAW264.7 [20] = assay: Antiinflammatory activity in mouse RAW264.7 cells assessed as inhibition of LPS-induced COX-2 mRNA expression at 25 uM incubated for 12 hrs by PCR analysis; assay type: functional
RAW264.7 [21] = assay: Cytotoxicity against mouse RAW264.7 cells assessed as reduction in cell viability at 0.07 to 0.1 mg/ml incubated for 24 hrs by MTT assay; assay type: toxicity, cell-based; conditions: raw264.7, 24 h, dose 0.07-0.1 mg/ml
RAW264.7 [22] = assay: Antiinflammatory activity in mouse RAW264.7 cells assessed as inhibition of LPS-induced iNOS mRNA expression at 25 uM incubated for 12 hrs by PCR analysis; assay type: functional
HepG2 [23] = assay: Antiinflammatory activity in human HepG2 cells assessed as inhibition of LPS-induced IL-6 mRNA expression at 10 ug/ml preincubated for 1 hrs followed by LPS stimulation and measured after 24 hrs by qPCR analysis; assay type: functional; conditions: time 25 hrs
RAW264.7 [24] = assay: Antiinflammatory activity in mouse RAW264.7 cells assessed as inhibition of LPS-induced NO production incubated for 20 hrs by Griess reagent based microplate reader analysis; assay type: functional, cell-based; conditions: RAW264.7, 20 h
[25] = Antiinflammatory activity in human PBMC cells assessed as inhibition of LPS-induced IL-1beta production at 25 uM incubated for 18 hrs by ELISA; assay type: functional
Zingiber officinale = assay: Inhibition of prostaglandin biosynthesis in ginger; assay type: functional, organism-based
Mus musculus [26] = assay: Antiinflammatory activity in TPA-induced ear edema ICR mouse model assessed as inhibition of ear inflammation at 1 ug, TOP for 30 mins followed by TPA addition and measured after 6 hrs; assay type: functional; conditions: dose 1 µg, time 390 min, 6.5 h
[27] = Antiinflammatory activity in human PBMC cells assessed as inhibition of LPS-induced TNFalpha production at 25 uM incubated for 18 hrs by ELISA; assay type: functional
RAW264.7 [28] = assay: Antiinflammatory activity in mouse RAW264.7 cells assessed as inhibition of KLA-induced TNFalpha expression at 0.02 mg/ml and measured after 24 hrs by ELISA; assay type: functional
RAW264.7 [29] = assay: Antiinflammatory activity in mouse RAW264.7 cells assessed as inhibition of LPS-induced NO production at 25 uM incubated for 24 hrs by Griess reagent based assay; assay type: functional
HepG2 [30] = assay: Antiinflammatory activity in human HepG2 cells assessed as inhibition of LPS-induced TNFalpha mRNA expression at 10 ug/ml preincubated for 1 hrs followed by LPS stimulation and measured after 24 hrs by qPCR analysis; assay type: functional; conditions: time 25 hrs
Rattus norvegicus [31] = assay: Antiinflammatory activity against Freund's complete adjuvant-induced arthritic Wistar rat model assessed as reduction in IL-1beta level at 5 mg/kg,po measured after 28 days by ELISA; assay type: functional; parameters: scale not given: the % may be the effect or the level left; conditions: time 28 day
Rattus norvegicus [32] = assay: Antiinflammatory activity against Freund's complete adjuvant-induced arthritic Wistar rat model assessed as reduction in TNF-alpha level at 5 mg/kg,po measured after 28 days by ELISA; assay type: functional; parameters: scale not given: the % may be the effect or the level left; conditions: time 28 day
Rattus norvegicus [33] = assay: Antiinflammatory activity against Freund's complete adjuvant-induced arthritic Wistar rat model assessed as reduction in IL-6 level at 5 mg/kg,po measured after 28 days by ELISA; assay type: functional; parameters: scale not given: the % may be the effect or the level left; conditions: time 28 day
Rattus norvegicus [34] = assay: Antiinflammatory activity in Wistar rat model of carrageenan-induced paw edema assessed as reduction in paw thickness at 10 mg/kg,po and measured after 5 hrs; assay type: functional; parameters: scale not given: the % may be the effect or the level left
Rattus norvegicus [35] = assay: Antiinflammatory activity against Freund's complete adjuvant-induced arthritic Wistar rat model assessed as reduction in paw volume at 5 mg/kg,po measured after 28 days; assay type: functional; parameters: scale not given: the % may be the effect or the level left; conditions: time 28 day
RAW264.7 [36] = assay: Antiinflammatory activity in mouse RAW264.7 cells assessed as inhibition of LPS-induced IL-1beta expression at 5 ug/ml; assay type: functional
RAW264.7 [37] = assay: Antiinflammatory activity in mouse RAW264.7 cells assessed as inhibition of LPS-induced NF-kappaB expression at 5 ug/ml; assay type: functional
RAW264.7 [38] = assay: Antiinflammatory activity in mouse RAW264.7 cells assessed as inhibition of LPS-induced TNFalpha expression at 5 ug/ml; assay type: functional
RAW264.7 [39] = assay: Antiinflammatory activity in mouse RAW264.7 cells assessed as inhibition of LPS-induced NO production; assay type: functional, cell-based
RAW264.7 [40] = assay: Antiinflammatory activity in mouse RAW264.7 cells assessed as inhibition of LPS-induced COX-2 expression at 5 ug/ml; assay type: functional
RAW264.7 [41] = assay: Antiinflammatory activity in mouse RAW264.7 cells assessed as inhibition of LPS-induced iNOS expression at 5 ug/ml; assay type: functional

Structure (SMILES): OC(/C=C/C=C/c1ccccc1)CCc1ccccc1 (stereo not drawn)
- ID50 (Rattus norvegicus [1]): 312 µg
- Activity (Rattus norvegicus [2]): 39%
- ID50 (Rattus norvegicus [3]): 129 µg
- Activity (Mus musculus [4]): 53%

Structure (SMILES): COc1ccc(/C=C/C(C[C@H](O)CCc2ccc(OC)c(OC)c2)OC)cc1OC (stereo partly drawn)
- inhibition at 30 µM (Hep 3B2 [5]): 91%
- inhibition at 30 µM (Hep 3B2 [6]): 91%
- inhibition at 30 µM (Hep 3B2 [7]): 76%
- inhibition at 30 µM (Hep 3B2 [8]): 91%

Structure (SMILES): COc1c2cc(c(OC)c1O)-c1cc(ccc1O)CC[C@@H](O)CCCC2
- Activity (Mus musculus [9]): 31%
- Activity (Mus musculus [10]): 49%
- Activity (Mus musculus [11]): 21%
- Activity (Mus musculus [12]): 12%
- Activity (Mus musculus [13]): 22%
- Activity (Mus musculus [14]): 41%
- Activity (Mus musculus [15]): 12%
- Activity (Mus musculus [16]): 38%
- Activity (Mus musculus [17]): 50%
- Activity (Mus musculus [18]): 16%

Structure (SMILES): COc1cc(CC/C=C/C(=O)CCc2ccccc2)ccc1O
- inhibition at 10 µg/mL (HepG2 [19]): 86%
- inhibition at 25 µM (RAW264.7 [20]): 54.6%
- Activity (RAW264.7 [21]): > 80%
- inhibition at 25 µM (RAW264.7 [22]): 75.5%
- inhibition at 10 µg/mL (HepG2 [23]): 52%
- IC50 (RAW264.7 [24]): 0.6 µM
- inhibition at 25 µM [25]: 85%
- IC50 (Zingiber officinale): 50 µM
- ID50 (Mus musculus [26]): 2.2 µmol
- inhibition at 25 µM [27]: 43%
- inhibition at 20 µg/mL (RAW264.7 [28]): 54%
- inhibition at 25 µM (RAW264.7 [29]): 50%
- inhibition at 10 µg/mL (HepG2 [30]): 85%

Structure (SMILES): O=C(O)Cc1ccccc1Nc1c(Cl)cccc1Cl [DICLOFENAC]
- Activity (Rattus norvegicus [31]): 7%
- Activity (Rattus norvegicus [32]): 47%
- Activity (Rattus norvegicus [33]): 2.5%
- Activity (Rattus norvegicus [34]): 39.5%
- Activity (Rattus norvegicus [35]): 28.3%

Structure (SMILES): O=C(/C=C/CCc1ccc(O)cc1)CCc1ccccc1
- inhibition at 5 µg/mL (RAW264.7 [36]): 70%
- inhibition at 5 µg/mL (RAW264.7 [37]): 50%
- inhibition at 5 µg/mL (RAW264.7 [38]): 71%
- ID50 (Mus musculus [26]): 0.8 µmol
- IC50 (RAW264.7 [39]): 5 mg/L (≈ 17.8 µM)
- inhibition at 5 µg/mL (RAW264.7 [40]): 69%
- inhibition at 5 µg/mL (RAW264.7 [41]): 69%
